Data as given in patent publication US8512695B2 (priority 2008, dated 2013).
Like-named read-outs stand apart in the source and are kept apart here.

What was measured:
[1] = system: fat grafts; assay: Weight / reabsorption by weight of 1.0 cc/1.0 g fat grafts; assay type: in vivo, nude mice
Description: (§1) Fat Processing. Lipoaspirate was taken directly from the operating room. It was separated into 30 cc aliquots, and washed once with an equal volume of normal saline to remove blood and cellular debris. Afterwards, the tubes were centrifuged at 200G and the middle layer was separated and treated with various agents. These agents were treated in 30 cc washes, with 30 cc of fat for 30 minutes at 37° C. This incubation was chosen to minimize ischemic time while allowing for sufficient mixing with treatment agents. Following incubation and washing, the fat was again centrifuged at 200G. The middle fat layer was again separated and placed in 1.0 cc, 1.0 g aliquots for injection into the flanks of nude mice. […] Fat was engrafted into animals within two hours of collection from the operating room in order to minimize warm ischemia time.
Each experiment consisted of an early group and a late group of mice. […] For the early time points two animals were euthanized on each sampling day for each group (n=4 lobules per each early time point). Additionally, animals from these same groups were then euthanized at six weeks for examination of late endpoints (8 animals generating 16 lobules were used for each group of late time points). Once an animal was euthanized, both lobules were collected analyzed, and the animal was removed from the study.

[2] = system: adipocytes of fat grafts; assay: Apoptosis quantification in explanted fat grafts (Mito-PT / Apo-One fluorescent labels, plate reader); assay type: in vivo; details: for apoptosis level (words): early engraftment period, first ten days
Description: Apoptosis Identification. Immunochemistry apoptosis specific fluorescent labels FLIVO™ and MT Mito™ were used to identify apoptosis in adipocytes. Fat grafts were explanted, treated with Blendzyme (Roche Applied Science Liberase Blendzyme 3) at 38° C. for 20 minutes, and passed through a 100 micron cell strainer (to remove extra-cellular stromal elements left behind after digestion). These cells were then incubated for one hour at 38° C., and washed once following labeling. Afterwards these cells were placed into 96 well black plates, and read on a plate reader (Molecular Devices, SpectraMax M2) at their dye-specific emission and excitation wavelengths (FLIVO-red ex 565/em>590, MITO-PT ex 488/em green 530, red 590).
Fat Processing. Lipoaspirate was taken directly from the operating room. It was separated into 30 cc aliquots, and washed once with an equal volume of normal saline to remove blood and cellular debris. Afterwards, the tubes were centrifuged at 200G and the middle layer was separated and treated with various agents. These agents were treated in 30 cc washes, with 30 cc of fat for 30 minutes at 37° C. This incubation was chosen to minimize ischemic time while allowing for sufficient mixing with treatment agents. Following incubation and washing, the fat was again centrifuged at 200G. The middle fat layer was again separated and placed in 1.0 cc, 1.0 g aliquots for injection into the flanks of nude mice. This was performed under IRB approval for use of de-identified discarded tissue. Of note, the harvesting cannulas and harvesting pressures varied case by case and surgeon by surgeon. Fat was engrafted into animals within two hours of collection from the operating room in order to minimize warm ischemia time.
Experimental Model. Nude mice were implanted with 1.0 cc/1.0 g (+/−0.01 gm) fat grafts in a single lobule. These mice were injected with a 14 gauge angio-catheter to simulate a clinically relevant 1 cc injection. Two lobules were implanted into bilateral flanks of each nude mouse used in the study. The 14 gauge angio-catheter was chosen to minimize fat graft trauma during injection. Many clinicians use 16 and 14 gauge catheters currently for fat grafting, thus this size catheter was used to approximate clinical practice.
Initially, the lobules were explanted daily and measured for weight and apoptotic activity. After early curves were generated, lobules were explanted on days 3, 6, and 9, for the primary measurement of apoptosis levels. Additionally these samples were weighed, sent for histology, and measured for DNA content. Endpoints in the first ten days were compared to endpoints at six weeks to determine whether graft performance can be accurately predicted by early apoptosis and cell death.
Each experiment consisted of an early group and a late group of mice. Each group was injected with the same fat from a single patient on a single day. For the early time points two animals were euthanized on each sampling day for each group (n=4 lobules per each early time point). Additionally, animals from these same groups were then euthanized at six weeks for examination of late endpoints (8 animals generating 16 lobules were used for each group of late time points). Once an animal was euthanized, both lobules were collected analyzed, and the animal was removed from the study.
Apoptosis Quantification. Initially, lobules were explanted daily and measured for levels of apoptosis using Mito-PT. After daily testing, it was noted that peak levels of apoptosis occurred between days 5-7, and then trended back down. These values fell approximately in a bell shaped curve. Once this curve was determined, subsequent samples were tested on days 0, 3, 6, and 9, for a sampling of early apoptosis (see FIG. 7).

[3] = system: fat grafts; assay type: in vivo
Description: as §1
Experimental Model. Nude mice were implanted with 1.0 cc/1.0 g (+/−0.01 gm) fat grafts in a single lobule. […]
Initially, the lobules were explanted daily and measured for weight and apoptotic activity. […] Additionally these samples were weighed, sent for histology, and measured for DNA content. […]
Each experiment consisted of an early group and a late group of mice. […] Once an animal was euthanized, both lobules were collected analyzed, and the animal was removed from the study.

[4] = agents tested for potential additive effects with P188, saline in this group 0.74 g
[5] = Day 3, comparison experiments of FIG. 8
[6] = Day 6, comparison experiments of FIG. 8

In the case of `O=C(O)CCCC[C@@H]1CCSS1` (racemic) [lipoic acid], the “weight at six weeks” value ([1]; 1.0 cc/1.0 g graft implanted, six weeks) is reported as 0.65 ± 0.09 g, the “reabsorption by weight” value ([1]; six weeks) is reported as “statistically significant differences in reabsorption” and the “apoptosis level (words)” value [2] is reported as “decreased apoptosis during the engraftment period when compared to saline treated controls”.
In the case of `CC(C)CCC[C@@H](C)[C@H]1CC[C@H]2[C@@H]3CC=C4C[C@@H](O)CC[C@]4(C)[C@H]3CC[C@]12C` [cholesterol], the “weight at six weeks” value [1, 4] is reported as 0.73 ± 0.04 g and the “overall effect on / toxicity to fat grafts” value ([3]; conclusion over early and late endpoints) is reported as “toxic”.
`CCCCCCCCCCCCCCCC[N+](C)(C)C.[Cl-]` [CTA, cetyltrimethylammonium chloride] was tested, and the apoptosis level [2, 5] was 35,338 RFUs, the apoptosis level [2, 6] was 35,338 RFUs and the “apoptosis level (words)” value [2] was “higher levels of apoptosis than normal saline controls at earlier time points”.
For `Oc1ccc(C=Cc2cc(O)cc(O)c2)cc1` [resveratrol], the “weight at six weeks” value [1, 4] was 0.73 ± 0.03 g and the “overall effect on / toxicity to fat grafts” value ([3]; mouse, in vivo) was “toxic”.
`CCCCCCCCCCCCCCCC[N+](C)(C)C.[Br-]` [HCTA, Hexadecyltrimethylammonium bromide] was tested, and the apoptosis level [2, 5] was 31,076 RFUs, the apoptosis level [2, 6] was 41,037 RFUs and the “apoptosis level (words)” value [2] was “higher levels of apoptosis than normal saline controls at earlier time points”.
With Phosphatidylcholine [PC] the apoptosis level [2, 5] was 52,000 RFUs, the “apoptosis level (words)” value ([2]; listed as Phosphatidylcholine) was “elevated levels of apoptosis compared to P188” and the “apoptosis level (words)” value ([2]; listed as phosphatidylcholine) was “some protective effect, but not to the same magnitude as P188”.
In the case of `O=C1O[C@H]([C@@H](O)CO)C(O)=C1O` [vitamin C, ascorbic acid], the “apoptosis level (words)” value [2] is reported as “high levels of apoptosis”.
